# Laboratory results from publication PMC4418667 (PLoS ONE, 2015).
# Target: T1, IKKβ (Homo sapiens, UniProt O14920)
# T1 construct: gene IKBKB
# T1 sequence (O14920 1-756): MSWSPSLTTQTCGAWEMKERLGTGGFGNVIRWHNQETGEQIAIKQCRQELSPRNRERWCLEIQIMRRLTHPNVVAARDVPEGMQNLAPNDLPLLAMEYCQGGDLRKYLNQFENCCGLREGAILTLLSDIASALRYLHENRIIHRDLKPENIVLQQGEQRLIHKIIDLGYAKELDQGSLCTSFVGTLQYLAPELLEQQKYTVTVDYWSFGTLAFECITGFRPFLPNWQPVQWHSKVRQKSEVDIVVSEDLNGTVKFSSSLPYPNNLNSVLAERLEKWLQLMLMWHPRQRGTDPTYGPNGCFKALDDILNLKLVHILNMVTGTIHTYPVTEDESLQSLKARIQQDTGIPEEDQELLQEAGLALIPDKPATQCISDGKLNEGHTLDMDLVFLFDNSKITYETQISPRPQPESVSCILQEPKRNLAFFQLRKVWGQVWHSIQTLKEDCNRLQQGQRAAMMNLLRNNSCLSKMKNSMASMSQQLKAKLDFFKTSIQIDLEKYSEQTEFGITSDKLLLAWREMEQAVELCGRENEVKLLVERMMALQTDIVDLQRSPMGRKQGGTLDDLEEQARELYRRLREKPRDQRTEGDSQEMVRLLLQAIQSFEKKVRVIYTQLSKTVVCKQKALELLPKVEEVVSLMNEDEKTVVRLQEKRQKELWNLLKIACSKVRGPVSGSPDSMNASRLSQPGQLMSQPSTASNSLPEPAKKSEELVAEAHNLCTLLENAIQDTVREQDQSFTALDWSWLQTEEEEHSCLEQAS
# Experiment: biochemical
row,SMILES,IC50
1,"C[C@H]1[C@H](C)CC[C@]2(C(=O)O)CC[C@]3(C)C(=CC[C@@H]4[C@@]5(C)C[C@@H](O)[C@H](O)[C@@](C)(CO)[C@@H]5CC[C@]43C)[C@H]12 [AA, Asiatic Acid]",95 µM
2,"C[C@H]1[C@H](C)CC[C@]2(C(=O)O)CC[C@]3(C)C(=CC[C@@H]4[C@@]5(C)C[C@@H](O)[C@H](O)C(C)(C)[C@@H]5CC[C@]43C)[C@H]12 [CA, Corosolic Acid]",89.3 µM
3,"C[C@H]1[C@H](C)CC[C@]2(C(=O)O)CC[C@]3(C)C(=CC[C@@H]4[C@@]5(C)CC[C@H](O)C(C)(C)[C@@H]5CC[C@]43C)[C@H]12 [UA, Ursolic Acid]",69 µM
